Results taken from patent publication US20050197350A1, “Novel quinoline, tetrahydroquinazoline, and pyrimidine derivatives and methods of treatment related to the use thereof” (TAISHO PHARMACEUTICAL CO., LTD., priority 2003, published 2005).

Tested on: MCH receptors
Experiment: MCH receptor activity class (method not given)
Settings: class by percent of control at 10^−7 M or IC50

Structure (SMILES)	class
Cc1cc(N(C)C)nc(N[C@H]2CC[C@@H](C(=O)NCc3ccc(Cl)cc3Cl)CC2)n1 [compound 2807, cis-N-(2,4-dichlorobenzyl)-4-{[4-(dimethylamino)-6-methylpyrimidin-2-yl]amino}cyclohexanecarboxamide]	1 (Class 1: The value of percent of control at 10^−7 M was less than 40% or the value of IC50 was less than 50 nM.)
Cc1cc(N(C)C)nc(N[C@H]2CC[C@@H](C(=O)NCc3cc(Cl)ccc3Cl)CC2)n1 [compound 2808, cis-N-(2,5-dichlorobenzyl)-4-{[4-(dimethylamino)-6-methylpyrimidin-2-yl]amino}cyclohexanecarboxamide]	1 (Class 1: The value of percent of control at 10^−7 M was less than 40% or the value of IC50 was less than 50 nM.)
Cc1ccc(CNC(=O)[C@H]2CC[C@@H](Nc3nc(C)cc(N(C)C)n3)CC2)cc1 [compound 2809, cis-4-{[4-(dimethylamino)-6-methylpyrimidin-2-yl]amino}-N-(4-methylbenzyl)cyclohexanecarboxamide]	1 (Class 1: The value of percent of control at 10^−7 M was less than 40% or the value of IC50 was less than 50 nM.)
Cc1cc(N(C)C)nc(N[C@H]2CC[C@@H](C(=O)NCc3cc(Cl)cc(Cl)c3)CC2)n1 [compound 2810, cis-N-(3,5-dichlorobenzyl)-4-{[4-(dimethylamino)-6-methylpyrimidin-2-yl]amino}cyclohexanecarboxamide]	1 (Class 1: The value of percent of control at 10^−7 M was less than 40% or the value of IC50 was less than 50 nM.)
COc1cc(CNC(=O)[C@H]2CC[C@@H](Nc3nc(C)cc(N(C)C)n3)CC2)cc(OC)c1 [compound 2811, cis-N-(3,5-dimethoxybenzyl)-4-{[4-(dimethylamino)-6-methylpyrimidin-2-yl]amino}cyclohexanecarboxamide]	1 (Class 1: The value of percent of control at 10^−7 M was less than 40% or the value of IC50 was less than 50 nM.)
Cc1cc(N(C)C)nc(N[C@H]2CC[C@@H](C(=O)NCc3cccc(Cl)c3)CC2)n1 [compound 2812, cis-N-(3-chlorobenzyl)-4-{[4-(dimethylamino)-6-methylpyrimidin-2-yl]amino}cyclohexanecarboxamide]	1 (Class 1: The value of percent of control at 10^−7 M was less than 40% or the value of IC50 was less than 50 nM.)
Cc1cc(N(C)C)nc(N[C@H]2CC[C@@H](C(=O)NCc3cccc(C(F)(F)F)c3)CC2)n1 [compound 2813, cis-4-{[4-(dimethylamino)-6-methylpyrimidin-2-yl]amino}-N-[3-(trifluoromethyl)benzyl]cyclohexanecarboxamide]	2 (Class 2: The value of percent of control at 10^−7 M was from 40% to 60% or the value of IC′50 was from 50 nM to 200 nM.)
Cc1cc(N(C)C)nc(N[C@H]2CC[C@@H](C(=O)NCc3cc(C(F)(F)F)cc(C(F)(F)F)c3)CC2)n1 [compound 2814, cis-N-[3,5-bis(trifluoromethyl)benzyl]-4-{[4-(dimethylamino)-6-methylpyrimidin-2-yl]amino}cyclohexanecarboxamide]	1 (Class 1: The value of percent of control at 10^−7 M was less than 40% or the value of IC50 was less than 50 nM.)
COc1cccc(CNC(=O)[C@H]2CC[C@@H](Nc3nc(C)cc(N(C)C)n3)CC2)c1 [compound 2815, cis-4-{[4-(dimethylamino)-6-methylpyrimidin-2-yl]amino}-N-(3-methoxybenzyl)cyclohexanecarboxamide]	1 (Class 1: The value of percent of control at 10^−7 M was less than 40% or the value of IC50 was less than 50 nM.)
Cc1cc(N(C)C)nc(N[C@H]2CC[C@@H](C(=O)NCc3ccc(Cl)cc3)CC2)n1 [compound 2816, cis-N-(4-chlorobenzyl)-4-{[4-(dimethylamino)-6-methylpyrimidin-2-yl]amino}cyclohexanecarboxamide]	1 (Class 1: The value of percent of control at 10^−7 M was less than 40% or the value of IC50 was less than 50 nM.)
Cc1cc(N(C)C)nc(N[C@H]2CC[C@@H](C(=O)NCc3ccc(Cl)c(Cl)c3)CC2)n1 [compound 2817, cis-N-(3,4-dichlorobenzyl)-4-{[4-(dimethylamino)-6-methylpyrimidin-2-yl]amino}cyclohexanecarboxamide]	1 (Class 1: The value of percent of control at 10^−7 M was less than 40% or the value of IC50 was less than 50 nM.)
Cc1cc(N(C)C)nc(N[C@H]2CC[C@@H](C(=O)NCc3ccc(F)cc3F)CC2)n1 [compound 2818, cis-N-(2,4-difluorobenzyl)-4-{[4-(dimethylamino)-6-methylpyrimidin-2-yl]amino}cyclohexanecarboxamide]	1 (Class 1: The value of percent of control at 10^−7 M was less than 40% or the value of IC50 was less than 50 nM.)
Cc1cc(N(C)C)nc(N[C@H]2CC[C@@H](C(=O)NCc3cc(F)ccc3F)CC2)n1 [compound 2819, cis-N-(2,5-difluorobenzyl)-4-{[4-(dimethylamino)-6-methylpyrimidin-2-yl]amino}cyclohexanecarboxamide]	1 (Class 1: The value of percent of control at 10^−7 M was less than 40% or the value of IC50 was less than 50 nM.)
Cc1cc(N(C)C)nc(N[C@H]2CC[C@@H](C(=O)NCc3cccc(F)c3F)CC2)n1 [compound 2820, cis-N-(2,3-difluorobenzyl)-4-{[4-(dimethylamino)-6-methylpyrimidin-2-yl]amino}cyclohexanecarboxamide]	1 (Class 1: The value of percent of control at 10^−7 M was less than 40% or the value of IC50 was less than 50 nM.)
Cc1cc(N(C)C)nc(N[C@H]2CC[C@@H](C(=O)NCc3ccc(Br)cc3F)CC2)n1 [compound 2821, cis-N-(4-bromo-2-fluorobenzyl)-4-{[4-(dimethylamino)-6-methylpyrimidin-2-yl]amino}cyclohexanecarboxamide]	1 (Class 1: The value of percent of control at 10^−7 M was less than 40% or the value of IC50 was less than 50 nM.)
Cc1cccc(CNC(=O)[C@H]2CC[C@@H](Nc3nc(C)cc(N(C)C)n3)CC2)c1 [compound 2822, cis-4-{[4-(dimethylamino)-6-methylpyrimidin-2-yl]amino}-N-(3-methylbenzyl)cyclohexanecarboxamide]	1 (Class 1: The value of percent of control at 10^−7 M was less than 40% or the value of IC50 was less than 50 nM.)
Cc1cc(N(C)C)nc(N[C@H]2CC[C@@H](C(=O)NCc3ccccc3OC(F)(F)F)CC2)n1 [compound 2823, cis-4-{[4-(dimethylamino)-6-methylpyrimidin-2-yl]amino}-N-[2-(trifluoromethoxy)benzyl]cyclohexanecarboxamide]	1 (Class 1: The value of percent of control at 10^−7 M was less than 40% or the value of IC50 was less than 50 nM.)
COc1cccc(C(=O)N[C@H]2CC[C@@H](Nc3nc(C)c(C)c(N(C)C)n3)CC2)c1 [compound 2824, N-(cis-4-{[4-(dimethylamino)-5,6-dimethylpyrimidin-2-yl]amino}cyclohexyl)-3-methoxybenzamide]	1 (Class 1: The value of percent of control at 10^−7 M was less than 40% or the value of IC50 was less than 50 nM.)
Cc1nc(N[C@H]2CC[C@@H](NC(=O)c3cc(O)nc(O)c3)CC2)nc(N(C)C)c1C [compound 2825]	3 (Class 3 The value of percent of control at 10^−7 M was more than 60% or the value of IC50 was more than 200 nM.)
Cc1nc(N[C@H]2CC[C@@H](NC(=O)c3cnccn3)CC2)nc(N(C)C)c1C [compound 2826]	3 (Class 3 The value of percent of control at 10^−7 M was more than 60% or the value of IC50 was more than 200 nM.)
